Data: patent US8796321B2, “Compounds, compositions and methods comprising oxadiazole derivatives” (PATH Drug Solutions, priority 2008, dated 2014)

Tested on: cholera toxin (CTX) induced net fluid secretion in intestinal loops
Parameters: species or system mice (CD1 strain)
Details: mouse, in vivo

SMILES | closed loop % inhibition @ 10 μg [%] | closed loop % inhibition @ 100 μg [%]
CC(C)(C)C(=O)CN(Cc1cccc(C(F)(F)F)c1)C(=O)c1nc(-c2cc(Br)c(O)c(Br)c2)no1 [compound 1, 3-(3,5-dibromo-4-hydroxyphenyl)-N-(3,3-dimethyl-2-oxobutyl)-N-(3-(trifluoromethyl)benzyl)-1,2,4-oxadiazole-5-carboxamide] | 69.4 | 87.1
O=C(NCc1ccc(Oc2ccccc2)cc1)c1nc(-c2cc(Br)c(O)c(Br)c2)no1 [compound 13, 3-(3,5-dibromo-4-hydroxyphenyl)-N-(4-phenoxybenzyl)-1,2,4-oxadiazole-5-carboxamide] | 88.6 | 94.7
O=C(NCc1cccc(OC(F)(F)F)c1)c1noc(-c2cc(Br)c(O)c(Br)c2)n1 [compound 65, 5-(3,5-dibromo-4-hydroxyphenyl)-N-(3-(trifluoromethoxy)benzyl)-1,2,4-oxadiazole-3-carboxamide] | – | 94.6
O=C(NCc1cc(F)cc(F)c1)c1noc(-c2cc(Cl)c(O)c(Cl)c2)n1 [compound 112, 5-(3,5-dichloro-4-hydroxyphenyl)-N-(3,5-difluorobenzyl)-1,2,4-oxadiazole-3-carboxamide] | – | 51
O=C(NCc1cccc(OC(F)(F)F)c1)c1noc(-c2cc(Cl)c(O)c(Cl)c2O)n1 [compound 120, 5-(3,5-dichloro-2,4-dihydroxyphenyl)-N-(3-(trifluoromethoxy)benzyl)-1,2,4-oxadiazole-3-carboxamide] | – | 62.3
